According to publication PMC11413854, “Reversible Control of Native GluN2B-Containing NMDA Receptors with Visible Light” (ACS Chemical Neuroscience, 2024):
Several values for one entry are separate records, joined by “and”; a condition that tells them apart may be missing. Equal values may be shown once. Read-outs that look alike come from different tables or passages of the source.

Experiments:
[1] = target: T1, GluK2 kainate receptors (Rattus norvegicus, UniProt P42260, I567V/Q621R/Y571C); test: TEVC on Xenopus oocytes, GluK2 kainate receptors; format: cell-based; parameters: Inhibition, individual values: scale not given here; details: for Inhibition, individual values: GluK2, single cells
T1 construct: expressed in transfected cells; host or cells: Xenopus laevis oocytes (mRNA injection)
T1 sequence (P42260 32-908 I567V/Y571C/Q621R): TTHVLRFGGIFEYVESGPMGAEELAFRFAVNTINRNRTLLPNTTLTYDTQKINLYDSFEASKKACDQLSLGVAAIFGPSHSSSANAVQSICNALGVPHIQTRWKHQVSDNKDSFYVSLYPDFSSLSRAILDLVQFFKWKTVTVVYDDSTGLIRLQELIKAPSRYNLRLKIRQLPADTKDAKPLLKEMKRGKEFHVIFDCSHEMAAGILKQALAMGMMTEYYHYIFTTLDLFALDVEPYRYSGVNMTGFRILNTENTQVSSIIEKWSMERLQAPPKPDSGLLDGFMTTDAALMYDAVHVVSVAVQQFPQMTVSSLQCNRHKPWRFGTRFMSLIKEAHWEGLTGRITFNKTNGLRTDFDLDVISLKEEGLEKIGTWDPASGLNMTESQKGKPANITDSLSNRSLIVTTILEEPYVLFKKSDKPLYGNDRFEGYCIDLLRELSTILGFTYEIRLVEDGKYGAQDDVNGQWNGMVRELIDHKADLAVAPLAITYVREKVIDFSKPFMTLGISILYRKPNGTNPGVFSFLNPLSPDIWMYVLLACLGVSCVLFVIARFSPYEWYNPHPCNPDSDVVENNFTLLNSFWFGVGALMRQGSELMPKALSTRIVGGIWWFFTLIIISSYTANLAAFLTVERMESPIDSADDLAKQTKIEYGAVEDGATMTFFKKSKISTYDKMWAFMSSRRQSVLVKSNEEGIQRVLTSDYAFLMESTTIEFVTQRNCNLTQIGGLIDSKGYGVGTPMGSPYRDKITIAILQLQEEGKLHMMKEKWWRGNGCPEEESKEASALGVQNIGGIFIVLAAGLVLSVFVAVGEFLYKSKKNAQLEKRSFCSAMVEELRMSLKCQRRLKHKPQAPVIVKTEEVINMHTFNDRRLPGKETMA
Excerpt: (§1) We used cDNA coding for rat GluN1–1a (named GluN1 herein) (GenBank: U08261.1), rat GluN2A (GenBank: D13211.1), mouse GluN2B (GenBank: D10651.2), rat GluA1 flop (GenBank: M36418.2), and rat Myc-GluA2(Q)-flip (GenBank: AF164344.1) cloned into pcDNA3-based expression plasmids. GluK2 (GenBank: Z11548.1) corresponds to the fully RNA-edited version.[80] The GluN2B-ΔNTD construct is from ref[45] and GluN2B–N615K is from ref[81]. Single mutants GluN2B-Q110G and GluN1-L135H were from ref[19]. The GluA2 cDNA contains a Myc tag ([…]) fused between the signal peptide and the N-terminus sequences, and the GluA2 subunit is […] for its Q/R/N site (GluA2(Q)) to allow permeation of homomeric GluA2 receptors.[2] cDNAs coding for rat GluN2C (GenBank: M91563.1) and GluN2D subunits (GenBank: L31611.1) were in prK5 plasmids.
The expression of recombinant GluA1, GluA2(Q), and GluK2 receptors was obtained by oocyte injection of 50 nL of mRNAs (at 1 μg/μL). mRNAs were generated using the T7 (GluA1 and GluA2) and T3 (GluK2) mMessage mMachine transcription kits (Invitrogen) after cDNA linearization with the SacII restriction enzyme. The injected oocytes were stored in the same conditions as for NMDARs and used 72–96 h postinjection.
(§2) TEVC recordings were performed 1–3 days following injection. TEVC recordings were performed using an Oocyte Clamp amplifier OC-725 (Warner Instruments) and computer-controlled via a 1440A Digidata (Molecular Devices). Currents were sampled at 100 Hz and low-pass-filtered at 20 Hz using an 8-pole Bessel filter (900 Series, Frequency Devices Inc.). Data were collected with Clampfit 10.3. During the recording, the cells were continuously perfused with external recording Ringer solution at pH 7.3 (in mM: 100 NaCl, 0.3 BaCl2, 5 HEPES, and 2.5 KCl, pH adjustment to 7.3 by the addition of NaOH). The NMDA currents were induced by simultaneous application of L-glutamate and glycine (agonist solution) at saturating concentration (100 μM each), and DTPA (10 μM) to prevent receptor inhibition by ambient zinc (∼20 nM).[83] A control solution (100 μM glycine and 10 μM DTPA in Ringer pH 7.3) was used for washout of drug and test solutions. AMPA and kainate receptor currents were induced in the same conditions as NMDA currents (100 μM glutamate and glycine + 10 μM DTPA). Oocytes expressing GluK2 kainate receptors were treated with concanavalin A ([…], equivalent to 1.1 mg/mL) during 10 min before recording to decrease receptor desensitization. Unless notified, recordings were performed at a holding potential of −60 mV. All experiments were performed at room temperature.
Oocytes expressing GluK2 receptors were treated with concanavalin A ([…]) before recording to decrease
receptor desensitization.

[2] = target: GluN1/GluN2B-ΔNTD receptors (Rattus norvegicus (GluN1); Mus musculus (GluN2B), UniProt P35439+Q01097); test: TEVC on Xenopus oocytes, GluN2B NTD-deleted receptors; format: cell-based; details: for Relative current (IOpto/I0): GluN1/GluN2B-DeltaNTD
GluN1/GluN2B-ΔNTD receptors, sequence (Q01097 395-1482, stated change not applied, other chains not shown): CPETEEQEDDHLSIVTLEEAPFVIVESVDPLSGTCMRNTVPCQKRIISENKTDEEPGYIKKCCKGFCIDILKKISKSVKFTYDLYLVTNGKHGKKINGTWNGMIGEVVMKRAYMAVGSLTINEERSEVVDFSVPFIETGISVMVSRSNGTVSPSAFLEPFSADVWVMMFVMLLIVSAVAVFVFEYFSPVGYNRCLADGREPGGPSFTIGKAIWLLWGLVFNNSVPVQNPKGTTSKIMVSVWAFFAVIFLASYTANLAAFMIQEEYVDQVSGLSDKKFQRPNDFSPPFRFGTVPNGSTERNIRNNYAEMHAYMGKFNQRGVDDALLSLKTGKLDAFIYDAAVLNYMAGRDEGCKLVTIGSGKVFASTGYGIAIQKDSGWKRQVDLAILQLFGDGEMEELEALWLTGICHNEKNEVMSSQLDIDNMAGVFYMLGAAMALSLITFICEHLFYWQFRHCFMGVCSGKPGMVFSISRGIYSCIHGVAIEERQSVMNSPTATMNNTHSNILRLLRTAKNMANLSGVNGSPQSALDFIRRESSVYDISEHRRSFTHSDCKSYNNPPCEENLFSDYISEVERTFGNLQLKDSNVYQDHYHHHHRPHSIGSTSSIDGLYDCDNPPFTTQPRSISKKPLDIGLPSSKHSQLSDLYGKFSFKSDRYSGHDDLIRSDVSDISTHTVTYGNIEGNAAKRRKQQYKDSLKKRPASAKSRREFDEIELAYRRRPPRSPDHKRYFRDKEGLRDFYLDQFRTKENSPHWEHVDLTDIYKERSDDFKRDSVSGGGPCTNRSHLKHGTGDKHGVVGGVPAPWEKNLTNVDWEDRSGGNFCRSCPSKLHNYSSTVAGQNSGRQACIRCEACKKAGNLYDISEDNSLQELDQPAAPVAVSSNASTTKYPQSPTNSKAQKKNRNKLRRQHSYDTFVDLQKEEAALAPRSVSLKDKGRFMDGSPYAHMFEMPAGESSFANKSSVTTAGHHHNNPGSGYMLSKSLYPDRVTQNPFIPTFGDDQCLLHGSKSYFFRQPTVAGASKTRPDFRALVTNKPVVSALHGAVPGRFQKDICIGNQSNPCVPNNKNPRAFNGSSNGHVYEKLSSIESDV
Excerpt: We finally investigated the location of the OptoNAM-3 binding-site on the receptor. […] The binding site for GluN2B-selective antagonists at the GluN1/GluN2B NTD dimer interface contains two partially overlapping pockets that accommodate GluN2B-selective NAMs of distinct chemical scaffolds:[19] either scaffolds related to ifenprodil or scaffolds related to another GluN2B-selective NAM called EVT-101.[47]
as §1
Expression of recombinant NMDA receptors was obtained by oocyte nuclear coinjection of 37 nL of a mixture of cDNAs (at 30 ng/μL) coding for GluN1–1a and various GluN2 subunits (ratio 1:1). The protocol in ref[43] was followed for the expression of GluN1/GluN2A/GluN2B triheteromers. The oocytes were transferred in 96-well plates filled with Barth solution (in mM: 88 NaCl, 1 KCl, 0.33 Ca(NO3)2, 0.41 CaCl2, 0.82 MgSO4, 2.4 NaHCO3, and 7.5 HEPES, pH adjusted to 7.3 with NaOH), supplemented with gentamicin ([…]) and 50 μM APV, a selective NMDA receptor antagonist. Plates were then stored at 18 °C for 24 h for GluN1/GluN2A expression and for 48––72 h for the expression of GluN1/Glu2B, GluN1/GluN2A/GluN2B, and mutants.
as §2
OptoNAMs were diluted as stock solutions of 50 to 0.5 mM in DMSO. On the day of the experiment, they were diluted to the appropriate concentration in the recording solution and kept in the dark during the whole duration of the experiment to avoid photoconversion.

c1ccc(/N=N/c2ccc(CCNc3ccncc3)cc2)cc1 [OptoNAM-3, (E)-N-(4-(Phenyldiazenyl)phenethyl)pyridin-4-amine]
inhibition at 10 µM ([1]; 10 µM OptoNAM-3 365 nm PSS, construct GluK2, read-out: Inhibition (%)): -1.6% | Inhibition, individual values ([1]; 10 µM OptoNAM-3 dark PSS (trans) as headed, second block): -0.01064 and 0.02708 and -0.08821 and 0.02098 and -0.02821 | Inhibition, individual values ([1]; 10 µM OptoNAM-3 dark PSS (trans), first block): 0.1443 and -0.06723 and 0.004392 and 0.02857 and 0.0441 | inhibition at 10 µM ([1]; 10 µM OptoNAM-3 dark PSS (trans), construct GluK2, read-out: Inhibition (%)): 3.1% | inhibition of GluK2 currents ([1]; 10 µM, dark PSS, concanavalin A treated): no effect | inhibition at 10 µM ([1]; 10 µM, dark PSS, concanavalin A treated, read-out: inhibition of GluK2 currents): 3.1 ± 3.4% | inhibition of GluN1/GluN2B-DeltaNTD ([2]; 1 µM trans-OptoNAM-3 (dark), calculated from the dose-response curve): 2.150% | IC50 ([2]; 365 nm PSS, read-out: IC50 on GluN1/GluN2B-ΔNTD receptors pre-illuminated with 365 nm): 25 ± 6 µM | Relative current (IOpto/I0) ([2]; OptoNAM-3 365 nm PSS, [OptoNAM-3] 0.3 µM): 0.952 | Relative current (IOpto/I0) ([2]; OptoNAM-3 365 nm PSS, [OptoNAM-3] 2 µM): 0.900 | Relative current (IOpto/I0) ([2]; OptoNAM-3 365 nm PSS, [OptoNAM-3] 5 µM): 0.779 | Relative current (IOpto/I0) ([2]; OptoNAM-3 365 nm PSS, [OptoNAM-3] 20 µM): 0.661 | Relative current (IOpto/I0) ([2]; OptoNAM-3 365 nm PSS, [OptoNAM-3] 30 µM): 0.421 | Relative current (IOpto/I0) ([2]; OptoNAM-3 365 nm PSS, [OptoNAM-3] 67 µM): 0.119 | Relative current (IOpto/I0) ([2]; OptoNAM-3 dark PSS (trans), [OptoNAM-3] 0.3 µM): 0.969 | Relative current (IOpto/I0) ([2]; OptoNAM-3 dark PSS (trans), [OptoNAM-3] 2 µM): 0.866 | Relative current (IOpto/I0) ([2]; OptoNAM-3 dark PSS (trans), [OptoNAM-3] 5 µM): 0.809 | Relative current (IOpto/I0) ([2]; OptoNAM-3 dark PSS (trans), [OptoNAM-3] 20 µM): 0.542 | Relative current (IOpto/I0) ([2]; OptoNAM-3 dark PSS (trans), [OptoNAM-3] 30 µM): 0.365 | Relative current (IOpto/I0) ([2]; OptoNAM-3 dark PSS (trans), [OptoNAM-3] 67 µM): 0.033 | shift in IC50 between wt and GluN1/GluN2B-ΔNTD receptors ([2]; dark): 100 fold | IC50 ([2]; dark, read-out: IC50 on GluN1/GluN2B-ΔNTD receptors in the dark): 20 ± 4 µM
